Measurements taken from patent US20070202079A1, “Therapeutic compositions and methods useful in modulating protein tyrosine phosphatases” (priority 2006, published 2007).

Experiments:
[1] = system: A549; test: A549 cell growth, MTT; type: cell-based, human; details: 100 μg/ml, day 6
Method: (§1) NIH3T3 (Yi, et al., Blood 85, 87 (1995)), WM9 (Forsberg, et al., Proc. Nat. Acad Sci. USA 90, 393 (1993)), DU145 (Mickey, et al., Cancer Res. 37, 4049 (1977)), LoVo (Drewinko, et al., Cancer Res. 36, 467 (1976)), HEY (Buick, et al., Cancer Res. 45, 3668 (1985)), U251 (Yoshida, et al., Cancer 50, 410 (1982)), A549 (Giard, et al., J. Natl. Cancer Inst. 51, 1417 (1973)) and SK-N-SH (Helson, et al., Cancer Res. 35, 2594 (1975)) cell lines have been described and were cultured in RPMI 1640 supplemented with 10% fetal calf serum (FCS). For measurement of sodium stibogluconate effects on cell growth in vitro, cells were cultured in the absence (−) or presence (+) of various amounts of sodium stibogluconate for 6 days with viable cells quantified by MTT assays (Mosmann, J. Immunol. Methods 65, 55 (1983)). Percentages of growth inhibition by sodium stibogluconate were calculated (.+−.x%).

[2] = system: Renca tumors; test: Renca tumors in Balb/c mice; type: in vivo; details: Balb/c mice, two weeks
Method: Balb/c and athymic nude Balb/c mice (10 weeks old, female, Taconic Farms, Germantown, N.Y.) were inoculated (s.c.) at the flanks with Renca cells (10^6 cells/site). Four days post-inoculation, the mice were subject to no treatment (Control) or treatment with IL-2 ([…]/daily for 5 days, i.p.), SSG (12 mg/daily, i.m. at hip regions) or the combination of the two agents for two weeks. […] The dose of SSG was similar to the effective daily dose of the drug for the treatment of murine leishmaniasis (Murray, H. W., J. D. Berman, and S. D. Wright. 1988. Immunochemotherapy for intracellular Leishmania donovani infection: gamma interferon plus pentavalent antimony. J Infect Dis 157:973). Tumor volume was measured during the study period and calculated using the formula for a prolate spheroid (V=4/3×a2b) (Lindner, D. J., E. C. Borden, and D. V. Kalvakolanu. 1997. Synergistic antitumor effects of a combination of interferons and retinoic acid on human tumor cells in vitro and in vivo. Clin Cancer Res 3:931). Student's t test was used for assessing the significance of tumor volume differences among differential treatment groups. Mouse viability (daily) and body weights (weekly) were also recorded during the study period. At the end of the study, Renca tumors and major internal organs (heart, kidney, liver, lung and spleen) were harvested for histology and immunohistochemistry analysis.

[3] = system: IFNγ+ cells in human peripheral blood; test: ELISPOT assays of peripheral blood treated in vitro; type: cell-based; details: comparable conditions
[4] = system: TF-1 cells; test: TF-1 cell proliferation assay; type: cell-based, human; details: 50 μg/ml
Method: The murine hematopoietic cell line Baf3 was maintained in RPMI 1640 medium supplemented with 10% fetal calf serum (FCS) and murine IL-3 (20 units/ml) as described previously in Damen et al., J. Biol. Chem. 270, 23402 (1995). Human myeloid cell line TF-1 was maintained in RPMI 1640 supplemented with 10% FCS and 40 ng/ml of recombinant human GM-CSF as described previously in Thomassen et al., Clin. Immunol. 95, 85 (2000). For cell proliferation assays, cells were washed in 10% FCS medium twice, resuspended in 10% FCS medium, incubated at 37° C. for 16 hours, and then cultured at 37° C. in 10% FCS medium containing various amounts of cytokines, sodium stibogluconate, or potassium antimonyl tartrate for 3-6 days as indicated. The cell numbers in proliferation assays were determined by an MTT assay or by microscopic cell counting as indicated.

[5] = system: MDA231; test: MDA231 cell growth, MTT; type: cell-based, human; details: 50 μg/ml, day 6 culture
Method: For cell proliferation assays, cells were grown in 10% FCS culture medium containing various amounts of IFNs and/or sodium stibogluconate in 96 well plates and cultured at 37° C. for 3 or 6 days as indicated. The numbers of viable cells in proliferation assays were determined by MTT assays as described in Phatak et al., J. Immunol. 167, 3391 (2001).

[6] = system: Stat1 tyrosine phosphorylation; test: IFN-alpha-induced Stat1 tyrosine phosphorylation, Western blotting; type: cell-based, human
Method: For induction of Stat1 tyrosine phosphorylation by IFN-alpha in the absence or presence of sodium stibogluconate, cells grown in 10% FCS RPMI 1640 medium at 37° C. were stimulated with IFN-alpha (50 u/ml) for various time points and treated with or without sodium stibogluconate for 5 minutes prior to termination by lysing the cells in cold lysis buffer (1% NP-40; 50 mM Tris, pH 7.4; 100 mM NaCl; 1 mM EDTA, 10% glycerol, 10 mM sodium molybdic acid and 4 mM AEBSF).
Cell lysates were prepared by lysing cells in cold lysis buffer for 30 min and cleared by centrifuging at 14,000 rpm at 4° C. for 15 min. For SDS-PAGE, cell lysates were mixed with equal volume of 2×SDS-PAGE sample buffer, heated at 90° C. for 5 min and separated in 10% SDS-PAGE gels. Cellular proteins in SDS-PAGE gels were transferred to nitrocellulose membrane (Schleicher & Schuell, Keene, N.H.), blocked in 5% milk, probed with antibodies and detected by using an enhanced chemiluminescence kit (ECL, Amersham, Arlington Heights, Ill.).

[7] = system: WM9 PRL-1R86 transfectant; test: growth of WM9 PRL-1R86 transfectant, MTT; type: cell-based, human; details: 50 or 100 μg/ml, 6 days
Method: as §1
The effects of sodium stibogluconate on intracellular PTPases were assessed using NIH3T3 or WM9 transfectants. NIH3T3 or WM9 cells were transfected with the pBabepuro vector (V) or pBabepuro expression constructs of Flag-tagged PRLs using Lipofectamine (BRL) following the manufacturer's procedures. […]

[8] = system: Jurkat cells; test: IFN-gamma secretion by Jurkat cells, ELISA; type: cell-based, human; details: 16 hours
Method: Jurkat cells were cultured in the absence or presence of various amounts of SSG for 16 hours. The cells and culture medium supernatants were separated by centrifugation (1,000 g, 10 min). The amounts of IFN-gamma in the culture medium supernatants were quantified using an ELISA kit (R.D. system, Minneapolis, Minn.) following the manufacturer's protocol.

SMILES: O.O.O.O.O.O.O.O.O.O=C([O-])[C@@H]1[O][Sb]2([O-])([O][Sb]34([OH])[O][C@H]([C@H](O)CO)[C@H]([O]3)[C@H](C(=O)[O-])[O]4)[O][C@H]([C@H](O)CO)[C@@H]1[O]2.[Na+].[Na+].[Na+] [sodium stibogluconate]
- cell killing of A549 [1]: near-complete cell killing
- tolerance of treatment [2]: tolerated well
- cells expressing TH2 cytokine IL-5 [3]: not induced
- GM-CSF-induced proliferation of TF-1 cells ([4]; GM-CSF 5-40 ng/ml): augmented
- growth inhibition activity of IFN-alpha on TF-1 cells in presence of drug ([4]; with GM-CSF and IFN-alpha): enhanced
- MDA231 cells, single agent [5]: killed all cells
- IFN-alpha-induced Stat1 tyrosine phosphorylation ([6]; DR cells, 10 μg/ml, 30 min post-stimulation): approximately two folds greater than control
- Stat1 tyrosine phosphorylation by drug itself ([6]; DR cells, absence of IFN-alpha): failed to induce Stat1 tyrosine phosphorylation
- IFN-alpha-induced Stat1 tyrosine phosphorylation ([6]; DU145, 5 hours post-stimulation): Enhanced Stat1 tyrosine phosphorylation
- IFN-alpha-induced Stat1 tyrosine phosphorylation ([6]; WM9, 5 hours post-stimulation): Enhanced Stat1 tyrosine phosphorylation
- IFN-alpha-induced Stat1 tyrosine phosphorylation ([6]; WM35): failed to enhance
- IFN-alpha-induced Stat1 tyrosine phosphorylation ([6]; WiT49-N1): failed to enhance
- growth inhibition of R86 cells [7]: only modest growth inhibition
- IFN-gamma secretion [8]: increased amounts of IFN-gamma
